System: Meloidogyne incognita
Test: Meloidogyne incognita test (MELGIN): gall formation on salad seedlings in sand
Assay type: in vivo
Details: 504 h, eggs and larvae of Meloidogyne incognita, salad seeds in sand, 100% = no galls, read-out: Mortality in % after 21 d
Protocol: Meloidogyne incognita—Test (MELGIN)
Solvent: 125.0 parts by weight of acetone
To produce a suitable preparation of active compound, 1 part by weight of active compound is mixed with the stated amount of solvent, and the concentrate is diluted with water to the desired concentration. The preparation of the bacteria, fungi or yeast products contains 10^9-10^10 spores/g or cells/g. To produce a suitable preparation of a biological suspension the cells or spores are diluted with emulsifier-containing water to the desired concentration.
Vessels are filled with sand, a solution of the active ingredient, a suspension containing eggs and larvae of Meloidogyne incognita and salad seeds. The salad seeds germinate and the seedlings grow. Galls develop in the roots.
After the specified period of time the nematicidal activity is determined on the basis of the percentage of gall formation. When Meloidogyne incognita attacks roots of plants, it deforms the normal root cells and establishes giant cells and consequently the attacked roots form galls. 100% means that no galls were found; 0% means that the number of galls found on the roots of the treated plants was equal to that in untreated control plants.

SMILES: O=C(NCCc1ncc(C(F)(F)F)cc1Cl)c1ccccc1C(F)(F)F [Fluopyram]
- gall reduction efficacy at 0.0005 ppm: 0%

Source: patent US9433214B2, “Active compounds combination containing fluopyram Bacillus and biologically control agent” (BAYER INTELLECTUAL PROPERTY GMBH, priority 2012, dated 2016)
